Experimental data as given in ChEMBL document CHEMBL5550097, “Drug-drug conjugates of MEK and Akt inhibitors for RAS-mutant cancers” (Bioorg Med Chem, 2024).

Settings: human, microsomes, 1 h, 10 µM
Description: Metabolic stability in human liver microsomes at 10 uM preincubated for 5 mins followed by NADPH addition and measured upto 60 mins by LC-MS/MS method

Cc1ncc2n1-c1ccc(Cl)cc1C(c1ccccc1F)=NC2 [MIDAZOLAM]
Stability: Unstable
